Article PMC8162404, “Proteomimetic surface fragments distinguish targets by function” (Chemical Science, 2020)

Experiments:
[1] = target: T1, S100B (Homo sapiens, UniProt P04271); assay: Competition pull-down with native ligand RSK1 (689–735); type: binding; details: H14 library; competitor peptide 200 µM; read-out: Surface mapping KD (apparent), competition
T1 construct: made in house; host or cells: Escherichia coli BL21(DE3)
T1 sequence (P04271 1-92): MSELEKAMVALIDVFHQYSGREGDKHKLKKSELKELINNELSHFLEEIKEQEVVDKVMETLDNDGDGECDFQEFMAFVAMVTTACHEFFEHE

[2] = target: T2, Gal-1 (Homo sapiens, UniProt P09382); assay: Pull-down assay with immobilized protein and LSM libraries; type: binding; details: H14 library; 1:1 binding assumed; read-out: Surface mapping KD (apparent)
T2 construct: made in house; host or cells: E. coli BL21(DE3)
In short: (§1)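 Buffers were HEPES pH 7.4 with 150 mM NaCl, plus 1 mM TCEP and 1 mM CaCl2 (50 mM HEPES) for S100A4 and S100B, 1 mM TCEP for Gal-1, and no additive for RecQ-WH. Immobilized protein at 64 µM was equilibrated 30 min with the LSM sublibrary, and unbound probes were measured by LC-MS.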

[3] = target: T3, S100A4 (Homo sapiens, UniProt P26447); assay: as above; type: binding; details: H14 library; 1:1 binding assumed; read-out: Surface mapping KD (apparent)
T3 construct: made in house; host or cells: Escherichia coli BL21(DE3)
In short: as §1

[4] = target: T1, S100B; assay: as above; type: binding; details: H14 library; 1:1 binding assumed; read-out: Surface mapping KD (apparent)
In short: as §1

[5] = target: T4, CaM (Bos taurus, UniProt P62157); assay: as above; type: binding, bovine; details: H14 library; 1:2 stoichiometry assumed; read-out: Surface mapping KD (apparent)
T4 construct: made in house; host or cells: E. coli BL21 (DE3)
In short: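 CaM buffer was 20 mM HEPES pH 7.4, 150 mM NaCl, 5 mM CaCl2. LSM sublibrary members ([…]) incubated 30 min, RT, with equimolar His-tagged protein on Co-NTA resin. HPLC-MS measured unbound probes; bound fraction relative to resin-only background gave dissociation constants.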

[6] = target: T2, Gal-1; assay: Competition pull-down with lactose; type: binding; details: H14 library; lactose 10 mM; read-out: Surface mapping KD (apparent), competition
In short: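 His6-tagged proteins immobilized on Co-NTA resin at 64 µM final with 64-member LSM foldamer sublibraries (1 M each, as printed) in pH 7.4 HEPES/NaCl buffers (Ca2+/TCEP per target), 30 min RT; competitor peptides 200 µM final, lactose 10 mM for Gal-1. Bound fractions from LC-MS loss vs protein-free resin; KD assuming 1:1 binding.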

[7] = target: T4, CaM; assay: Competition pull-down with native ligand TRPV1-Ct15; type: binding, bovine; details: H14 library; competitor peptide 200 µM; read-out: Surface mapping KD (apparent), competition

T3 sequence (P26447 whole entry): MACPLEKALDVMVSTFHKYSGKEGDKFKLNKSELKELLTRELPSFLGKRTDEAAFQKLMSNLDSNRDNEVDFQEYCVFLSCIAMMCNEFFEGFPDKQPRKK
T2 sequence (P09382 whole entry): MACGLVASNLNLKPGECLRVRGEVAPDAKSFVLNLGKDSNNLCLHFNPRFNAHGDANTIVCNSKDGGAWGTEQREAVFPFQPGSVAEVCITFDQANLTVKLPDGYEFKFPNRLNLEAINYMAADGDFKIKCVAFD

SMILES | Kd [1] | Kd [2] | Kd [3] | Kd [4] | Kd [5] | Kd [6] | Kd [7]
CC(C)[C@@H](CC(=O)N[C@H]1CCCC[C@@H]1C(=O)N[C@H]1CCCC[C@@H]1C(=O)N[C@@H](CCC(N)=O)CC(=O)N[C@H]1CCCC[C@@H]1C(N)=O)NC(=O)[C@H]1CCCC[C@@H]1N [H14 VQ] | 339 µM | 161 µM |  |  |  |  | 
CC(C)[C@@H](CC(=O)N[C@H]1CCCC[C@@H]1C(=O)N[C@H]1CCCC[C@@H]1C(=O)N[C@H](CC(=O)N[C@H]1CCCC[C@@H]1C(N)=O)[C@@H](C)O)NC(=O)[C@H]1CCCC[C@@H]1N [H14 VT] | 484 µM | 347 µM | 79 µM | 382 µM | 142 µM |  | 
CC(C)[C@@H](CC(=O)N[C@H]1CCCC[C@@H]1C(=O)N[C@H]1CCCC[C@@H]1C(=O)N[C@@H](CCCNC(=N)N)CC(=O)N[C@H]1CCCC[C@@H]1C(N)=O)NC(=O)[C@H]1CCCC[C@@H]1N [H14 VR] | 221 µM | 289 µM | 284 µM | 77 µM | 40 µM |  | 
CSCC[C@@H](CC(=O)N[C@H]1CCCC[C@@H]1C(=O)N[C@H]1CCCC[C@@H]1C(=O)N[C@H](CC(=O)N[C@H]1CCCC[C@@H]1C(N)=O)[C@@H](C)O)NC(=O)[C@H]1CCCC[C@@H]1N [H14 MT] | 337 µM | 424 µM | 148 µM | 476 µM | 63 µM |  | 
CSCC[C@@H](CC(=O)N[C@H]1CCCC[C@@H]1C(N)=O)NC(=O)[C@H]1CCCC[C@@H]1NC(=O)[C@H]1CCCC[C@@H]1NC(=O)C[C@H](CCC(=O)O)NC(=O)[C@H]1CCCC[C@@H]1N [H14 EM] | 141 µM |  |  |  |  |  | 
CC[C@H](C)[C@@H](CC(=O)N[C@H]1CCCC[C@@H]1C(=O)N[C@H]1CCCC[C@@H]1C(=O)N[C@@H](CCCCN)CC(=O)N[C@H]1CCCC[C@@H]1C(N)=O)NC(=O)[C@H]1CCCC[C@@H]1N [H14 IK] | 216 µM |  | 307 µM | 84 µM | 31 µM |  | 
CC(C)C[C@@H](CC(=O)N[C@H]1CCCC[C@@H]1C(=O)N[C@H]1CCCC[C@@H]1C(=O)N[C@@H](CO)CC(=O)N[C@H]1CCCC[C@@H]1C(N)=O)NC(=O)[C@H]1CCCC[C@@H]1N [H14 LS] | 371 µM | 498 µM | 195 µM | 379 µM | 99 µM |  | 
CC[C@H](C)[C@@H](CC(=O)N[C@H]1CCCC[C@@H]1C(=O)N[C@H]1CCCC[C@@H]1C(=O)N[C@@H](CC(N)=O)CC(=O)N[C@H]1CCCC[C@@H]1C(N)=O)NC(=O)[C@H]1CCCC[C@@H]1N [H14 IN] | 325 µM |  | 321 µM |  | 281 µM |  | 
CSCC[C@@H](CC(=O)N[C@H]1CCCC[C@@H]1C(=O)N[C@H]1CCCC[C@@H]1C(=O)N[C@@H](C)CC(=O)N[C@H]1CCCC[C@@H]1C(N)=O)NC(=O)[C@H]1CCCC[C@@H]1N [H14 MA] | 382 µM | 385 µM | 72 µM | 380 µM | 16 µM |  | 
CC(C)[C@@H](CC(=O)N[C@H]1CCCC[C@@H]1C(=O)N[C@H]1CCCC[C@@H]1C(=O)N[C@@H](CC(N)=O)CC(=O)N[C@H]1CCCC[C@@H]1C(N)=O)NC(=O)[C@H]1CCCC[C@@H]1N [H14 VN] | 271 µM | 302 µM |  |  |  |  | 
C[C@@H](CC(=O)N[C@H]1CCCC[C@@H]1C(=O)N[C@H]1CCCC[C@@H]1C(=O)N[C@H](CC(=O)N[C@H]1CCCC[C@@H]1C(N)=O)Cc1ccc(O)cc1)NC(=O)[C@H]1CCCC[C@@H]1N [H14 AY] | 304 µM | 353 µM | 221 µM | 192 µM | 119 µM |  | 
CSCC[C@@H](CC(=O)N[C@H]1CCCC[C@@H]1C(N)=O)NC(=O)[C@H]1CCCC[C@@H]1NC(=O)[C@H]1CCCC[C@@H]1NC(=O)C[C@@H](NC(=O)[C@H]1CCCC[C@@H]1N)C(C)C [H14 VM] | 229 µM |  | 5 µM | 93 µM | 26 µM |  | 
CC(C)C[C@@H](CC(=O)N[C@H]1CCCC[C@@H]1C(=O)N[C@H]1CCCC[C@@H]1C(=O)N[C@@H](CCCNC(=N)N)CC(=O)N[C@H]1CCCC[C@@H]1C(N)=O)NC(=O)[C@H]1CCCC[C@@H]1N [H14 LR] | 167 µM | 116 µM | 138 µM | 82 µM | 14 µM |  | 
NC(=O)[C@H]1CCCC[C@@H]1NC(=O)C[C@H](CO)NC(=O)[C@H]1CCCC[C@@H]1NC(=O)[C@H]1CCCC[C@@H]1NC(=O)C[C@H](Cc1ccc(O)cc1)NC(=O)[C@H]1CCCC[C@@H]1N [H14 YS] | 399 µM | 336 µM | 346 µM |  | 67 µM |  | 
CC(C)[C@@H](CC(=O)N[C@H]1CCCC[C@@H]1C(=O)N[C@H]1CCCC[C@@H]1C(=O)N[C@@H](CO)CC(=O)N[C@H]1CCCC[C@@H]1C(N)=O)NC(=O)[C@H]1CCCC[C@@H]1N [H14 VS] | 460 µM | 190 µM | 263 µM |  | 264 µM |  | 
CC[C@H](C)[C@@H](CC(=O)N[C@H]1CCCC[C@@H]1C(=O)N[C@H]1CCCC[C@@H]1C(=O)N[C@@H](CCCNC(=N)N)CC(=O)N[C@H]1CCCC[C@@H]1C(N)=O)NC(=O)[C@H]1CCCC[C@@H]1N [H14 IR] | 174 µM |  | 103 µM | 37 µM | 20 µM |  | 
CC(C)C[C@@H](CC(=O)N[C@H]1CCCC[C@@H]1C(=O)N[C@H]1CCCC[C@@H]1C(=O)N[C@@H](CC(N)=O)CC(=O)N[C@H]1CCCC[C@@H]1C(N)=O)NC(=O)[C@H]1CCCC[C@@H]1N [H14 LN] | 254 µM | 314 µM | 433 µM | 409 µM | 294 µM |  | 
NC(=O)CC[C@@H](CC(=O)N[C@H]1CCCC[C@@H]1C(N)=O)NC(=O)[C@H]1CCCC[C@@H]1NC(=O)[C@H]1CCCC[C@@H]1NC(=O)C[C@H](Cc1ccccc1)NC(=O)[C@H]1CCCC[C@@H]1N [H14 FQ] | 494 µM |  | 377 µM | 433 µM | 49 µM |  | 
CC[C@H](C)[C@@H](CC(=O)N[C@H]1CCCC[C@@H]1C(=O)N[C@H]1CCCC[C@@H]1C(=O)N[C@@H](CO)CC(=O)N[C@H]1CCCC[C@@H]1C(N)=O)NC(=O)[C@H]1CCCC[C@@H]1N [H14 IS] | 456 µM | 266 µM | 79 µM | 382 µM | 142 µM |  | 
CC(C)C[C@@H](CC(=O)N[C@H]1CCCC[C@@H]1C(=O)N[C@H]1CCCC[C@@H]1C(=O)N[C@@H](CCCCN)CC(=O)N[C@H]1CCCC[C@@H]1C(N)=O)NC(=O)[C@H]1CCCC[C@@H]1N [H14 LK] | 316 µM |  | 312 µM | 82 µM | 27 µM |  | 
CC(C)C[C@@H](CC(=O)N[C@H]1CCCC[C@@H]1C(N)=O)NC(=O)[C@H]1CCCC[C@@H]1NC(=O)[C@H]1CCCC[C@@H]1NC(=O)C[C@H](CO)NC(=O)[C@H]1CCCC[C@@H]1N [H14 SL] |  | 251 µM | 19 µM | 380 µM | 64 µM | 325 µM | 436 µM
CC(C)[C@@H](CC(=O)N[C@H]1CCCC[C@@H]1C(=O)N[C@H]1CCCC[C@@H]1C(=O)N[C@@H](CCCCN)CC(=O)N[C@H]1CCCC[C@@H]1C(N)=O)NC(=O)[C@H]1CCCC[C@@H]1N [H14 VK] | 390 µM | 296 µM |  | 138 µM | 67 µM |  | 
C[C@@H](O)[C@@H](CC(=O)N[C@H]1CCCC[C@@H]1C(=O)N[C@H]1CCCC[C@@H]1C(=O)N[C@@H](CCCNC(=N)N)CC(=O)N[C@H]1CCCC[C@@H]1C(N)=O)NC(=O)[C@H]1CCCC[C@@H]1N [H14 TR] |  | 372 µM | 407 µM | 94 µM | 75 µM | 432 µM | 338 µM
CC[C@H](C)[C@@H](CC(=O)N[C@H]1CCCC[C@@H]1C(=O)N[C@H]1CCCC[C@@H]1C(=O)N[C@@H](CCC(N)=O)CC(=O)N[C@H]1CCCC[C@@H]1C(N)=O)NC(=O)[C@H]1CCCC[C@@H]1N [H14 IQ] | 387 µM |  | 319 µM | 497 µM | 321 µM |  | 
CC(C)[C@@H](CC(=O)N[C@H]1CCCC[C@@H]1C(=O)N[C@H]1CCCC[C@@H]1C(=O)N[C@@H](CCC(=O)O)CC(=O)N[C@H]1CCCC[C@@H]1C(N)=O)NC(=O)[C@H]1CCCC[C@@H]1N [H14 VE] | 369 µM | 313 µM |  |  |  |  | 
N=C(N)NCCC[C@@H](CC(=O)N[C@H]1CCCC[C@@H]1C(N)=O)NC(=O)[C@H]1CCCC[C@@H]1NC(=O)[C@H]1CCCC[C@@H]1NC(=O)C[C@H](CO)NC(=O)[C@H]1CCCC[C@@H]1N [H14 SR] |  | 156 µM | 188 µM | 76 µM | 75 µM | 349 µM | 174 µM
